The source of these data is paper PMC6017107 (Molecules : A Journal of Synthetic Chemistry and Natural …, 2018).

Series [1] can be described thus: in vivo. As for the experimental part:
(§1) Male ICR mice (age: 5–6 weeks old; body weight: 30 ± 2 g) were purchased from Samtako Co. (Osan, Gyeonggi-do, Korea), housed in plastic cages and given free access to a standard animal diet (Daejong, Seoul, Korea) and water. The environment was maintained under the following conditions: temperature, 23 ± 1 °C; 12-h light-dark cycle; and relative humidity, 50% ± 10%. The animals were acclimatized for a minimum period of 1 week and fasted overnight prior to experimentation.
(§2) The mice were randomly divided into four groups. Each group was pretreated with either control vehicle (a mixture of DMSO:PEG 400:distilled water; 5:45:50, v/v), piperine (10 mg/kg), capsaicin (5 mg/kg), or [6]-gingerol (5 mg/kg). The treatment solutions of piperine, capsaicin and [6]-gingerol were prepared by the dissolution of each compound in the DMSO:PEG 400:distilled water mixture at concentrations of 2, 1 and 1 mg/mL, respectively. The treatment solutions were administered intraperitoneally twice with τ = 60 min for control vehicle and piperine and τ = 30 min for capsaicin and [6]-gingerol. […] The physiological conditions of the animals were carefully monitored during the study.
(§3) The volume of injected dosing vehicle was 5 mL/kg. […] Plasma was harvested by centrifugation at 16,000× g for 10 min and immediately stored at −20 °C until analysis. […] All excised tissues were accurately weighed and homogenized (Tissue Tearor, Biospec Products Inc., Bartlesville, OK, USA) with appropriate volumes of isotonic saline. The obtained tissue homogenates were stored at −20 °C until analysis.
(§4) Sample analyses were conducted on an Agilent 6430 triple quadrupole mass spectrometer coupled with an Agilent 1200 HPLC (Agilent, Santa Clara, CA, USA). […] Chromatographic separation was performed using a binary gradient mobile phase composed of acetonitrile (A) and 0.05% formic acid (B) and programmed as follows: initial conditions, 20% A (0.3 mL/min) for 0.1 min and 80% A for 3 min; increased to 90% A in 0.1 min and maintained for 1 min; returned to the initial composition; followed by a 3.2-min equilibration step (1.5 min for 0.3 mL/min and then 1.7 min for 0.5 mL/min). The ESI source was operated in positive mode with curtain and nebulizer gas set at 10 and 20 psi, respectively. The capillary voltage and gas temperature were 4000 V and 300 °C, respectively.
(§5) The IS working solution (20 μL of 100 ng/mL IS solution for plasma and 50 μL of 100 ng/mL IS solution for tissue samples) and acetonitrile (50 μL for plasma and 80 μL for tissue samples) were added to 20 μL of plasma and 50 μL of tissue samples and mixed on a vortex mixer for 1 min. The mixture was then centrifuged at 16,000× g (Biofuge Fresco, Kendro, Osterode, Germany) for 10 min. For tissue samples, 100 μL of the supernatant was re-precipitated with an equal volume of acetonitrile and centrifuged at 16,000× g for 10 min. Finally, 50 μL distilled water was added to 50 μL of each supernatant, followed by mixing and injection of 10 μL of the sample mixture onto the LC-MS/MS. Data acquisition was performed with MassHunter Quantitative Analysis (Agilent, Santa Clara, CA, USA).
(§6) The pharmacokinetic parameters were determined by non-compartmental analysis using Phoenix® WinNonlin® 6.4 (Certara, L.P., Princeton, NJ, USA). As the procedure entailed destructive sampling, the non-compartmental analysis was performed by using the average plasma concentration vs. time data. These parameters included terminal half-life (t1/2), area under the plasma concentration-time curve from time zero to infinity (AUCinf), apparent volume of distribution during the terminal phase (Vz), the volume of distribution at steady state (Vss) and systemic clearance (CL).

Series [2] is described as follows: Tissue distribution of phytochemicals after intraperitoneal administration. As to conditions: mouse, in vivo, ip. On the procedure: as §1
The mice were randomly divided into four groups. Each group was pretreated with either control vehicle (a mixture of DMSO:PEG 400:distilled water; 5:45:50, v/v), piperine (10 mg/kg), capsaicin (5 mg/kg), or [6]-gingerol (5 mg/kg). […] The physiological conditions of the animals were carefully monitored during the study. […]
The IS working solution (20 μL of 100 ng/mL IS solution for plasma and 50 μL of 100 ng/mL IS solution for tissue samples) and acetonitrile (50 μL for plasma and 80 μL for tissue samples) were added to 20 μL of plasma and 50 μL of tissue samples and mixed on a vortex mixer for 1 min. […] Data acquisition was performed with MassHunter Quantitative Analysis (Agilent, Santa Clara, CA, USA).
The pharmacokinetic parameters were determined by non-compartmental analysis using Phoenix® WinNonlin® 6.4 (Certara, L.P., Princeton, NJ, USA). […]

In series [3] the test system is P-gp. The note with it: cited from earlier work; for IC50: Caco-2 cells.
Series [4] has as its system P-gp. The note with it: ref [7], cited from earlier work; for Effects on the P-gp mediated transport in vitro: KB-C2; for Increase of accumulation of rhodamine 123: KB-C2 cells.
The next series relates to KB-C2 cells. The note with it: substrate Vinblastine, ref [7]; cited from earlier work.
For another series, the system named is mice. The note with it: cited from earlier work.
Series [5] in a line: in vivo. As to conditions: for Increase of the Kp of doxorubicin in the kidney by pretreatment, comparing with control: 2 h after administration; for Increase of the Kp of doxorubicin in the liver by pretreatment: mice (matches 2 h values of Table 4). On the procedure: as §1, §2, §3, §4, §5, §6
For another series, the system named is Caco-2 cells. As to conditions: ref [6]; cited from earlier work.
The test system of the next series is P-gp, MRP1 and BCRP. As to conditions: ref [30], cited from earlier work.
Series [6] deals with MCF-7/DOX, A-549/DDP cells. The note with it: ref [30], cited from earlier work.
The subject of another series is ABC transporter genes. The note with it: MCF-7/DOX, A-549/DDP; ref [30]; cited from earlier work.
A short description of series [7]: Plasma pharmacokinetics of doxorubicin i.v. in mice pretreated with phytochemical P-gp modulators. As to conditions: male, ICR, mouse, in vivo, iv, 1 mg/kg, i.v. 1 mg/kg; for C0: C0 of doxorubicin; for clearance: CL of doxorubicin; for half-life: t1/2 of doxorubicin. As for the experimental part:
as §1, §2, §3, §4, §5, §6

For series [8] the following is noted: cited from earlier work.
Setting [9] is: male, ICR, mouse, in vivo, ip, 5 mg/kg.
Setting [10] is: male, ICR, mouse, in vivo, ip, 10 mg/kg.
Setting [11] is: A-549/DDP, substrate Doxorubicin.

“Also recorded” adds a separate entry of the source. Read-outs that look alike come from different tables or passages of the source.

The term AUC(0-inf) denotes the area under the concentration-time curve extrapolated to infinity. Low values mean less exposure, high ones more exposure. By CL/F is commonly meant the apparent clearance, not corrected for the fraction that reaches the circulation. As a reminder, the Cmax is the highest concentration seen after dosing. The term Tmax denotes the time from dosing to the highest level. The Vd/F is the apparent distribution volume after extravascular dosing. For orientation: half-life means the time in which the quantity being followed falls by half. The term LD50 denotes the dose at which mortality reaches 50%. For orientation: IC50 means the concentration that gives 50% inhibition. The term clearance denotes the rate of elimination divided by the concentration.

With `CCCCC[C@H](O)CC(=O)CCc1ccc(O)c(OC)c1` [[6]-Gingerol], in the series “in vivo [1]” (setting [9]), the AUC(0-inf) came out at 66.3 ng·h/mL, the CL/F is 1260 mL/min/kg, the Cmax came to 153 ng/mL and the Detection in plasma result was “not detected 2–4 h after administration”. Also, in the series “in vivo [1]” (setting [9]), the Tmax amounted to 0.17 h, the Vd/F is 148 L/kg and the half-life is 1.36 h. The “Detection in brain, heart and testis” value in series [2] is reported as “not detected”. Further, in the series with P-gp [3] (Caco-2, L-MDR1, substrate [3H] Digoxin, ref [8]), the “Effects on the P-gp mediated transport in vitro” value is reported as “Inhibited P-gp mediated efflux transport”. Also, the “Effects on the P-gp mediated transport in vitro” value in the series with P-gp [3] (Caco-2, L-MDR1, substrate [3H] Digoxin, ref [8], listed as [6]-gingerol) is reported as “inhibited P-gp-mediated digoxin transport”. For the same molecule, the “Effects on the P-gp mediated transport in vitro” value with P-gp [4] (substrate Daunorubicin) is given as “Increased cellular accumulation”. Further, in the series with P-gp [4] (substrate Rhodamine 123), the “Effects on the P-gp mediated transport in vitro” value is listed as “Inhibited efflux transport”. In the series with P-gp [4] (in the presence of [6]-gingerol), the “Increase of accumulation of rhodamine 123” value is recorded as 2.24 fold. The “Effects on the P-gp mediated transport in vitro” value with KB-C2 cells is “Increased vinblastine cytotoxicity by inhibition of efflux transporter”. In addition, the LD50 with mice (mouse, in vivo, ip) is recorded as 58.1 mg/kg.

As for `COc1cc(CNC(=O)CCCC/C=C/C(C)C)ccc1O` [Capsaicin], the Detection in plasma result in “in vivo [1]” (i.p. 5 mg/kg, mice, plasma) was “not detected 2–4 h after administration”. In “in vivo [1]” (setting [9]), the AUC(0-inf) was 66.8 ng·h/mL, the CL/F amounted to 1250 mL/min/kg, the concentration peaked (Cmax) at 119 ng/mL and the Tmax worked out at 0.17 h. In “in vivo [1]” (setting [9]), this molecule showed a Vd/F of 35.7 L/kg and a half-life of 0.33 h. Besides, in the series “in vivo [5]” (brain, 2 h, mice), the “Increase of the Kp of doxorubicin in the brain by pretreatment” value is 3.33 fold. Besides, the “Increase of the Kp of doxorubicin in the kidney by pretreatment, comparing with control” value in “in vivo [5]” (mice) came to 1.95 fold. The “Increase of the Kp of doxorubicin in the liver by pretreatment” value in the series “in vivo [5]” is reported as 6.21 fold. In the series on P-gp [3] (Caco-2, substrate [3H] Digoxin, ref [6]), the “Effects on the P-gp mediated transport in vitro” value is listed as “inhibited digoxin efflux mediated by P-gp; also recorded: Inhibited P-gp mediated efflux transport”. Further, the “Effects on the P-gp mediated transport in vitro” value in the series with P-gp [4] (substrate Daunorubicin) is reported as “Increased cellular accumulation”. Also, in the series with P-gp [4] (substrate Rhodamine 123), the “Effects on the P-gp mediated transport in vitro” value is “Inhibited efflux transport”. The “Increase of accumulation of rhodamine 123” value in the series on P-gp [4] (50 μmol/L capsaicin) is given as 4 fold. In the series on KB-C2 cells, the “Effects on the P-gp mediated transport in vitro” value is reported as “Increased vinblastine cytotoxicity by inhibition of efflux transporter”. Also, the Cytotoxicity entry with Caco-2 cells is “no resulting cytotoxicity”. The LD50 in the series on mice (i.p., mice, ref [57],[58]) is 7.6 mg/kg.

As to `O=C(/C=C/C=C/c1ccc2c(c1)OCO2)N1CCCCC1` [Piperine], in “in vivo [1]” (setting [10]), the AUC(0-inf) was found to be 9960 ng·h/mL. This molecule also had a CL/F in “in vivo [1]” (setting [10]) of 16.7 mL/min/kg. This molecule also showed a Cmax in “in vivo [1]” (setting [10]) of 5050 ng/mL. For the same molecule, the Tmax in the series “in vivo [1]” (setting [10]) was 0.75 h. For the same molecule, in the series “in vivo [1]” (setting [10]), the Vd/F was determined as 9.12 L/kg. The molecule also had a half-life in “in vivo [1]” (setting [10]) of 6.3 h. In [2] (male, ICR, 10 mg/kg), the Kp at 2 h stood at 1.69 ± 0.28. Moreover, in “in vivo [5]” (mice), the “Increase of the Kp of doxorubicin in the kidney by pretreatment, comparing with control” value worked out at 2.23 fold. The “Increase of the Kp of doxorubicin in the liver by pretreatment” value in “in vivo [5]” amounted to 5.44 fold. The “Effects on the P-gp mediated transport in vitro” value in the series on P-gp [3] (Caco-2, L-MDR1, substrate [3H] Digoxin, ref [5]) is “Inhibited P-gp mediated efflux transport”; in the series on P-gp [3] (Caco-2, substrates Digoxin, Cyclosporin A, ref [4]) it was “Inhibited P-gp mediated efflux transport”; with P-gp, MRP1 and BCRP (setting [11]) it was “Inhibited efflux activity of P-gp, MRP1 and BCRP”; with P-gp, MRP1 and BCRP (MCF-7/DOX, substrates Rhodamine 123, Mitoxantrone), “Inhibited efflux activity of P-gp, MRP1 and BCRP”; in [6] (setting [11]), “Increased cytotoxicity by reversing transporter mediated doxorubicin and mitoxantrone resistance”; in series [6] (substrate Mitoxantrone) it was “Increased cytotoxicity by reversing transporter mediated doxorubicin and mitoxantrone resistance”. For the same molecule, the “Effects on the P-gp mediated transport in vitro” value in the series on ABC transporter genes was “Inhibited transcription of the corresponding ABC transporter genes”. In addition, the IC50 in the series on P-gp [3] (cyclosporine A, ref [4], read-out: IC50, inhibition of transport of P-gp substrate cyclosporine A) was 74.1 µM; with P-gp [3] (digoxin, ref [4], read-out: IC50, inhibition of transport of P-gp substrate digoxin), 15.5 µM. Besides, in the series with mice (mouse, in vivo, ip), the LD50 was 60 mg/kg.

Take `COc1cccc2c1C(=O)c1c(O)c3c(c(O)c1C2=O)C[C@@](O)(C(=O)CO)C[C@@H]3O[C@H]1C[C@H](N)[C@H](O)[C@H](C)O1` [Doxorubicin]: the C0 in [7] (pretreatment Capsaicin) is 4430 ng/mL; in series [7] (pretreatment Control) it was 3980 ng/mL; in series [7] (pretreatment Piperine) it was 3400 ng/mL; in series [7] (pretreatment [6]-Gingerol) it was 4040 ng/mL. The clearance in series [7] (pretreatment Capsaicin) is 25.2 mL/min/kg; in series [7] (pretreatment Control), 31 mL/min/kg; in [7] (pretreatment Piperine), 25.6 mL/min/kg; in series [7] (pretreatment [6]-Gingerol) it was 28.8 mL/min/kg. Further, the half-life in series [7] (pretreatment Capsaicin) was 13.3 h; in [7] (pretreatment Control), 17.4 h; in series [7] (pretreatment Piperine), 15.7 h; in [7] (pretreatment [6]-Gingerol) it was 15.5 h. Further, the Kp in the series “in vivo [5]” (male, ICR, mouse, in vivo, iv, 1 mg/kg, Doxorubicin Kp values) was over 35.4. Besides, the “Injected doxorubicin excreted in bile” value in series [8] (bile duct-cannulated rats, ref [45]) is reported as 33–35%. Further, the “Injected doxorubicin eliminated via urine” value in series [8] (bladder-cannulated rats, ref [45]) is 4–8%. Moreover, the “Initial dose appearing in the bile as unchanged doxorubicin” value in series [8] (rats, within 3 h, ref [43]) is reported as “approximately 30%”.
